≈ marks a conversion by molar mass, not a printed value. Structures can show the parent of a compound that is named as a salt. One block for each molecule: values may come before it.
What was measured:
[1] = Assay of Dynamic Vapor Sorption (DVS); type: physicochemical; details: for weight change: range of 0% to 80% RH
[2] = Stability of the crystalline form; type: physicochemical
[3] = Solubility determination in water; type: physicochemical; details: room temperature
[4] = Pharmacokinetics in female SD rats, intragastric gavage; type: in vivo; details: PO
Procedure: 6 female SD rats were divided into two groups, three rats in each group. 50 mg/kg of Crystalline form A of the compound of formula I and free base amorphis of the compound of formula I were administered by intragastric gavage at single dose to each female SD rat respectively; the blood samples were collected through the jugular vein at the specified time, and the plasma from these samples was separated and stored in the refrigerator at −80° C.
For the above plasma from these samples, protein was precipitated using acetonitrile, the supernatant was diluted 3-fold by water, then took 5 μL of the solution for LC-MS/MS test, and data is shown in Table 9: […]

ALK (F1174L) = biological target: T1, ALK (F1174L) (Homo sapiens, UniProt Q9UM73, F1174L); assay: Biochemical kinase activity (Reaction Biology Corp)
T1 construct: purchased Reaction Biology Corp (contract testing)
Procedure: (§1) Biochemical kinase activity of the compound as shown in formula I was tested by Reaction Biology Corp located in Malvern, Pa., USA. The testing rules is described in Nat Biotechnol.

TRKA = biological target: T2, TRKA (Homo sapiens, UniProt P04629); assay: as above
T2 construct: purchased Reaction Biology Corp (contract testing)
Procedure: as §1

TRKA-TPR = biological target: T3, TRKA-TPR (Homo sapiens, UniProt P04629); assay: as above
T3 construct: fused on or other part: P12270 (Nucleoprotein TPR)
Procedure: as §1

ALK(L1196M) = biological target: T4, ALK(L1196M) (Homo sapiens, UniProt Q9UM73, L1196M); assay: as above
T4 construct: purchased Reaction Biology Corp (contract testing)
Procedure: as §1

ALK (S1206R) = biological target: T5, ALK (S1206R) (Homo sapiens, UniProt Q9UM73, S1206R); assay: as above
T5 construct: purchased Reaction Biology Corp (contract testing)
T5 sequence (Q9UM73 19-1620 S1206R): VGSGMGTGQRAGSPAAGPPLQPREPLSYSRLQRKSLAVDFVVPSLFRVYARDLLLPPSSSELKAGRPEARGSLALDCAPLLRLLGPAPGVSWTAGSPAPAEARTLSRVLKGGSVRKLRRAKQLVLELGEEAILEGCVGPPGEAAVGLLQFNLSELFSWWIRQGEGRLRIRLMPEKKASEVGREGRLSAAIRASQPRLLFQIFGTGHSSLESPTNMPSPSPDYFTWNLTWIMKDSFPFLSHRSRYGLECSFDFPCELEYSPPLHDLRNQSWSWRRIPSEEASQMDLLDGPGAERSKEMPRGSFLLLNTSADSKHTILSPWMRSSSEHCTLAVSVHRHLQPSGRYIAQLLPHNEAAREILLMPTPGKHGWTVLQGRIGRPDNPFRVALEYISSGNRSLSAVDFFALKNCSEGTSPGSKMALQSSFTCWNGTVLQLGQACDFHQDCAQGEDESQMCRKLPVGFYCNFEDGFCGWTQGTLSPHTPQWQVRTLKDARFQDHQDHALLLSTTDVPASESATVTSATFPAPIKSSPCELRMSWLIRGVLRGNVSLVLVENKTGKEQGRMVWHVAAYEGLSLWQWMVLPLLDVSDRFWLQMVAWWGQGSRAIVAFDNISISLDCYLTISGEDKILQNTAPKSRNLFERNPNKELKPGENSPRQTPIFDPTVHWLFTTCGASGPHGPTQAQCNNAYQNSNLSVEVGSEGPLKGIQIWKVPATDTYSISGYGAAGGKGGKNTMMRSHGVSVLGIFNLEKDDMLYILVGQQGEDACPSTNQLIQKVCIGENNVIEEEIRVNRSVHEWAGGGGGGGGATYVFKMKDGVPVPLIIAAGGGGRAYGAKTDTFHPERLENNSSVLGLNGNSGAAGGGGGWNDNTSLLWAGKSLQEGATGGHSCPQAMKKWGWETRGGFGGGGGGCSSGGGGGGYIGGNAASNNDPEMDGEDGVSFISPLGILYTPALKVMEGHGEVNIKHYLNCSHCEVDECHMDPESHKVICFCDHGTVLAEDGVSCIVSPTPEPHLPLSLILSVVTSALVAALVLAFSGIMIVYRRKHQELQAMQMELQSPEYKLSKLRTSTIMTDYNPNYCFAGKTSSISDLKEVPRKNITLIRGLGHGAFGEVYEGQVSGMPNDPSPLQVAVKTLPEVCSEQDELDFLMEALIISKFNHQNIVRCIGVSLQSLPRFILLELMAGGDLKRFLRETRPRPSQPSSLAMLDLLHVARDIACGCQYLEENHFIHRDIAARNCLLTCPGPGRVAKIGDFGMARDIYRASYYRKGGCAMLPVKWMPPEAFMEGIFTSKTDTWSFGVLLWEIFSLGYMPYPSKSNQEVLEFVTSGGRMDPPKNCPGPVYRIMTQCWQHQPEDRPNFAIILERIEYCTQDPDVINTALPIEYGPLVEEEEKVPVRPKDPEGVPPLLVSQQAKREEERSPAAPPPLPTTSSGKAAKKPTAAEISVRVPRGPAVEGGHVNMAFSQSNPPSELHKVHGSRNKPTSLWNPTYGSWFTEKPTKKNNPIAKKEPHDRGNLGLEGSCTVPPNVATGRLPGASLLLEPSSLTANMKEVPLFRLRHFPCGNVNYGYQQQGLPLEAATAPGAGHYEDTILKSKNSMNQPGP
Procedure: as §1

ALK(L1152R) = biological target: T6, ALK(L1152R) (Homo sapiens, UniProt Q9UM73, L1152R); assay: as above
T6 construct: purchased Reaction Biology Corp (contract testing)
Procedure: as §1

ALK (G1202R) = biological target: T7, ALK (G1202R) (Homo sapiens, UniProt Q9UM73, G1202R); assay: as above
T7 construct: purchased Reaction Biology Corp (contract testing)
T7 sequence (Q9UM73 19-1620 G1202R): as the sequence (Q9UM73 19-1620 S1206R) above, with G1184R, R1188S counted along it
Procedure: as §1

ALK-TFG = biological target: T8, ALK-TFG (Homo sapiens, UniProt Q9UM73); assay: as above
T8 construct: fused on or other part: Q92734 (Protein TFG)
Procedure: as §1

ALK (T1151M) = biological target: T9, ALK (T1151M) (Homo sapiens, UniProt Q9UM73, T1151M); assay: as above
T9 construct: purchased Reaction Biology Corp (contract testing)
Procedure: as §1

ALK = biological target: T10, ALK (Homo sapiens, UniProt Q9UM73); assay: as above
T10 construct: purchased Reaction Biology Corp (contract testing)
Procedure: as §1

ALK (G1269A) = biological target: T11, ALK (G1269A) (Homo sapiens, UniProt Q9UM73, G1269A); assay: as above
T11 construct: purchased Reaction Biology Corp (contract testing)
Procedure: as §1

ALK (G1269S) = biological target: T12, ALK (G1269S) (Homo sapiens, UniProt Q9UM73, G1269S); assay: as above
T12 construct: purchased Reaction Biology Corp (contract testing)
T12 sequence (Q9UM73 19-1620 G1269S): as the sequence (Q9UM73 19-1620 S1206R) above, with R1188S, G1251S counted along it
Procedure: as §1

TRKB = biological target: T13, TRKB (Homo sapiens, UniProt Q16620); assay: as above
T13 construct: purchased Reaction Biology Corp
T13 sequence (Q16620 32-822): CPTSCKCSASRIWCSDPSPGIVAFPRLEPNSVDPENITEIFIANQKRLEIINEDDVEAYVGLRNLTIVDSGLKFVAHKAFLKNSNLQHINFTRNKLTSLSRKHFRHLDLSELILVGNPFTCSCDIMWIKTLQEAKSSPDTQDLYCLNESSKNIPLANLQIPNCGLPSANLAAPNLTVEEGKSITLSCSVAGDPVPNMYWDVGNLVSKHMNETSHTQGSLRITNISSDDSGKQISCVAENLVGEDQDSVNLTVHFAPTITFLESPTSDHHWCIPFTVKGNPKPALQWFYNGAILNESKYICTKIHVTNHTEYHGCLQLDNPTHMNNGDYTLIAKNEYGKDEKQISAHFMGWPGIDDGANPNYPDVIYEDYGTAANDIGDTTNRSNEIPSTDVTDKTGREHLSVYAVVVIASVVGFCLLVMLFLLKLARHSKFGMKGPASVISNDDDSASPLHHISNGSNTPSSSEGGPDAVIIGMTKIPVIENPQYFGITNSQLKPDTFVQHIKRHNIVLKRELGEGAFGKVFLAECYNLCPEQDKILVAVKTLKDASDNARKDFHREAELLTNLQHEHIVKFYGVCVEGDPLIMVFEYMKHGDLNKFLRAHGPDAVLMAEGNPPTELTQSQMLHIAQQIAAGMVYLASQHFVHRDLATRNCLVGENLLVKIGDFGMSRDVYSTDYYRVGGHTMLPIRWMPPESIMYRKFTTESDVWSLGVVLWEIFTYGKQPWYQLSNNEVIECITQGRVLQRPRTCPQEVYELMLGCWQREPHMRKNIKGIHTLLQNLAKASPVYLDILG
Procedure: as §1

EPHA1 = biological target: T14, EPHA1 (Homo sapiens, UniProt P21709); assay: as above
T14 construct: purchased Reaction Biology Corp (contract testing)
Procedure: as §1

ALK-NPM1 = biological target: T15, ALK-NPM1 (Homo sapiens, UniProt Q9UM73); assay: as above
T15 construct: NPM1 part (fusion partner); purchased Reaction Biology Corp (contract testing); the other entry of the earlier key: NPM1 (P06748, Nucleophosmin)
Procedure: as §1

ALK-TPM3 = biological target: T16, ALK-TPM3 (Homo sapiens, UniProt Q9UM73); assay: as above
T16 construct: fused on or other part: P06753 (Tropomyosin alpha-3 chain)
T16 sequence (Q9UM73 1116-1392 limits assumed): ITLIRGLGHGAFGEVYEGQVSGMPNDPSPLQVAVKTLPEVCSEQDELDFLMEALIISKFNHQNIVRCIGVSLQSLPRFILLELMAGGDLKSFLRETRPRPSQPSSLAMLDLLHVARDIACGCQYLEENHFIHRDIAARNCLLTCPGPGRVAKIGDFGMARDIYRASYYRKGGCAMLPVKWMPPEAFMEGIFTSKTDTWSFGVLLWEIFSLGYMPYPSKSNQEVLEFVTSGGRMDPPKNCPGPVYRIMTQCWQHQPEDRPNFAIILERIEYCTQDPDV
Procedure: as §1

ALK (T1151-L1152insT) = biological target: T17, ALK (T1151-L1152insT) (Homo sapiens, UniProt Q9UM73, INS1151T); assay: as above
T17 construct: purchased Reaction Biology Corp (contract testing)
Procedure: as §1

ALK (Fl 174L)-NPM1 = biological target: T18, ALK (Fl 174L)-NPM1 (Homo sapiens, UniProt Q9UM73, F1174L); assay: as above
T18 construct: NPM1 part (fusion partner); purchased Reaction Biology Corp (contract testing); the other entry of the earlier key: NPM1 (P06748, Nucleophosmin)
Procedure: as §1

EPHA2 = biological target: T19, EPHA2 (Homo sapiens, UniProt P29317); assay: as above
T19 construct: purchased Reaction Biology Corp (contract testing)
Procedure: as §1

ALK (C1156Y) = biological target: T20, ALK (C1156Y) (Homo sapiens, UniProt Q9UM73, C1156Y); assay: as above
T20 construct: purchased Reaction Biology Corp (contract testing)
Procedure: as §1

ROS/ROS1 = biological target: T21, ROS/ROS1 (Homo sapiens, UniProt P08922); assay: as above
T21 construct: purchased Reaction Biology Corp (contract testing)
T21 sequence (P08922 28-2347): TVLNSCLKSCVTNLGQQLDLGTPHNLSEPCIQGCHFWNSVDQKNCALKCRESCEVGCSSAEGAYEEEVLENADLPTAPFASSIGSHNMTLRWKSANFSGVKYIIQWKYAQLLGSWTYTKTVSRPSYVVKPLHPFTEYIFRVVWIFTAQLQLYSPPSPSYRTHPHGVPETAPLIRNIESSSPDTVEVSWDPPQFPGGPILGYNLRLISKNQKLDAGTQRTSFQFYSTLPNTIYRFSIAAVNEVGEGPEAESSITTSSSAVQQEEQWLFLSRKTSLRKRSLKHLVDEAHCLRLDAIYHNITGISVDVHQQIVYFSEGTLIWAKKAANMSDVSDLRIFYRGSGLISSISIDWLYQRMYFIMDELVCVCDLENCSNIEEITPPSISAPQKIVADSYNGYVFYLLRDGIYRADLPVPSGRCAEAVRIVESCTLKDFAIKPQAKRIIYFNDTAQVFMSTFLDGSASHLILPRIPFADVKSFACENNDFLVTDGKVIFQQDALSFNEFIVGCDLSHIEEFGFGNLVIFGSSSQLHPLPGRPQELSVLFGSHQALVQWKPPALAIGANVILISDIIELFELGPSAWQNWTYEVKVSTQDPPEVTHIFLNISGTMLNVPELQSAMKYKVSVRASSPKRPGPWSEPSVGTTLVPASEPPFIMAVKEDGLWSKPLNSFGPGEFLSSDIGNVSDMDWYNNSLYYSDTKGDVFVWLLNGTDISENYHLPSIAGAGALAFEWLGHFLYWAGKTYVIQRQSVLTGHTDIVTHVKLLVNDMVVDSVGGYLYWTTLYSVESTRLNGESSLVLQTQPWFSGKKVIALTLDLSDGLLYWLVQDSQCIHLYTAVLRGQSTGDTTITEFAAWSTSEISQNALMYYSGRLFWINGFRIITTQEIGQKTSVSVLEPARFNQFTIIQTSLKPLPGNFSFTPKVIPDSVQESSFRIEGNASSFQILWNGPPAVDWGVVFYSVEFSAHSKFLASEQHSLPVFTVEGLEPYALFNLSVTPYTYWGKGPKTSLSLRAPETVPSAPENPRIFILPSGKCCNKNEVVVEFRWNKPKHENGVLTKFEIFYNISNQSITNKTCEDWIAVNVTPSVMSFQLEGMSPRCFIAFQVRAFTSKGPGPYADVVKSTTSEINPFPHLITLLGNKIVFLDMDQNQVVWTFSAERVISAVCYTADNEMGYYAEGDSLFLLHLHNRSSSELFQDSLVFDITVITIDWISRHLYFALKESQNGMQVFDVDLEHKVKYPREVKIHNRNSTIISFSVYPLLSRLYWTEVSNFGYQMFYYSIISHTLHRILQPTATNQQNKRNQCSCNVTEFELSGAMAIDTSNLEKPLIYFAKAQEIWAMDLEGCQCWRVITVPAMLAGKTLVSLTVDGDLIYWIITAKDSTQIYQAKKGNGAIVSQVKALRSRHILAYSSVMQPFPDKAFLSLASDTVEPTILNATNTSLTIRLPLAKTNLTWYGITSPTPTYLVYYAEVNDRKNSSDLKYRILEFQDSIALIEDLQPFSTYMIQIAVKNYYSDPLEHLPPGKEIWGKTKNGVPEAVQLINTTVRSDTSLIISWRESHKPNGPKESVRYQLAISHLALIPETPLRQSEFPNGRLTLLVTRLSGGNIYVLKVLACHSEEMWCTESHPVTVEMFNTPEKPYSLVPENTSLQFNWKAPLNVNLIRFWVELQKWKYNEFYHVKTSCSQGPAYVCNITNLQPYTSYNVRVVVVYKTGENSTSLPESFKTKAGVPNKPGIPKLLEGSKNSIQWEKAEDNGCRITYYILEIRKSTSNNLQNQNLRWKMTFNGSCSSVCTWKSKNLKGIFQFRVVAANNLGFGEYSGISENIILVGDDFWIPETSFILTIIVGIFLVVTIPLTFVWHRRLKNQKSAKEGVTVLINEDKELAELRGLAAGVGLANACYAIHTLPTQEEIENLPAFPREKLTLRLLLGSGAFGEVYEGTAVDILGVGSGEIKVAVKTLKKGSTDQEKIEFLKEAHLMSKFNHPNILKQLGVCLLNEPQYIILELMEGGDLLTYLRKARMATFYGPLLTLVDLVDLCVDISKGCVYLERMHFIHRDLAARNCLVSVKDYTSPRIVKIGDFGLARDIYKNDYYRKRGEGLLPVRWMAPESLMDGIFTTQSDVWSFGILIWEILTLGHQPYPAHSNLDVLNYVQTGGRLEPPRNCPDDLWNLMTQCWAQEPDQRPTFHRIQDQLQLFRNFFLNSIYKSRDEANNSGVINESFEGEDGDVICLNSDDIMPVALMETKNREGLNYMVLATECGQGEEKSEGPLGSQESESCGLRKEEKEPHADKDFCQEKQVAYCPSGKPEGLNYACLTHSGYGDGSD
Procedure: as §1

ROS1-GOPC = biological target: T22, ROS1-GOPC (Homo sapiens, UniProt P08922); assay: as above
T22 construct: fused on or other part: Q9HD26 (Golgi-associated PDZ and coiled-coil motif-containing protein)
Procedure: as §1

TRKA-TFG (TRK-T3) = biological target: T23, TRKA-TFG (TRK-T3) (Homo sapiens, UniProt P04629); assay: as above
T23 construct: TFG (fusion partner, UniProt Q92734); purchased Reaction Biology Corp; the other entry of the earlier key: TFG (Q92734, Protein TFG)
Procedure: as §1

c-MET = biological target: T24, c-MET (Homo sapiens, UniProt P08581); assay: as above
T24 construct: purchased Reaction Biology Corp (contract testing)
Procedure: as §1

NEK1 = biological target: T25, NEK1 (Homo sapiens, UniProt Q96PY6); assay: as above
T25 construct: purchased Reaction Biology Corp (contract testing)
Procedure: as §1

TRKC = biological target: T26, TRKC (Homo sapiens, UniProt Q16288); assay: as above
T26 construct: purchased Reaction Biology Corp
Procedure: as §1

TRKA-TPM3 = biological target: T27, TRKA-TPM3 (Homo sapiens, UniProt P04629); assay: as above
T27 construct: fused on or other part: P06753 (Tropomyosin alpha-3 chain)
Procedure: as §1

ALK (Fl 174L)-EML4 = biological target: T28, ALK (Fl 174L)-EML4 (Homo sapiens, UniProt Q9UM73, F1174L); assay: as above
T28 construct: EML4 part (fusion partner); purchased Reaction Biology Corp (contract testing)
Procedure: as §1

CSF1R (FMS) = biological target: T29, CSF1R (FMS) (Homo sapiens, UniProt P07333); assay: as above
T29 construct: purchased Reaction Biology Corp (contract testing)
Procedure: as §1

ALK (R1275Q) = biological target: T30, ALK (R1275Q) (Homo sapiens, UniProt Q9UM73, R1275Q); assay: as above
T30 construct: purchased Reaction Biology Corp (contract testing)
T30 sequence (Q9UM73 19-1620 R1275Q): as the sequence (Q9UM73 19-1620 S1206R) above, with R1188S, R1257Q counted along it
Procedure: as §1

EPHB1 = biological target: T31, EPHB1 (Homo sapiens, UniProt P54762); assay: as above
T31 construct: purchased Reaction Biology Corp (contract testing)
Procedure: as §1

ALK (F1174S) = biological target: T32, ALK (F1174S) (Homo sapiens, UniProt Q9UM73, F1174S); assay: as above
T32 construct: purchased Reaction Biology Corp (contract testing)
Procedure: as §1

[5] = cited from earlier work
[6] = Sprague-Dawley, rat, 50 mg/kg single dose, plasma

SMILES: C[C@@H]1CN(C(=O)c2ccc(NC(=O)c3cc(O[C@H](C)c4c(Cl)ccc(F)c4Cl)c(N)nn3)cc2)C[C@H](C)N1 [Amorphis]
weight change [1]: about 15.7% | hygroscopicity judgment ([1]; weight change 0-80% RH): extremely hygroscopic

SMILES: C[C@@H]1CN(C(=O)c2ccc(NC(=O)c3cc(O[C@H](C)c4c(Cl)ccc(F)c4Cl)c(N)nn3)cc2)C[C@H](C)N1 [Crystalline form A]
moisture removed ([1]; 0% RH drying stage): about 1.5% | moisture absorbed ([1]; 0% RH-80% RH range): about 2.3% | moisture removed ([1]; desorption stage, 30% RH): 1.5% | weight change [1]: about 2.3% | change of the weight ([1]; range of 30-80% RH): less than 2% | change in crystalline form ([2]; 25° C.-60% RH for 10 days): no change in crystalline form | change in crystalline form ([2]; 40° C.-75% RH for 10 days): no change in crystalline form | change in crystalline form ([2]; 80° C. for 24 hours): no change in crystalline form | solubility [3]: 20 to 100 mg/mL (≈ 35.6 to 178 mM) | absorption in vivo compared with the free base amorphis ([4]; 50 mg/kg): higher absorption in vivo | AUC(0-t) [4, 6]: 11600 ng·h/mL | Cmax [4, 6]: 1440 ng/mL | Tmax [4, 6]: 2.67 h

SMILES: C[C@@H]1CN(C(=O)c2ccc(NC(=O)c3cc(O[C@H](C)c4c(Cl)ccc(F)c4Cl)c(N)nn3)cc2)C[C@H](C)N1 [Crystalline form C]
change in crystalline form ([2]; dried in vacuum at room temperature overnight): almost completely converted to Crystalline form A

SMILES: C[C@@H](Oc1cc(-c2cnn(C3CCNCC3)c2)cnc1N)c1c(Cl)ccc(F)c1Cl [crizotinib, Crizotinib]
disease control ([5]; Phase I clinical trial): 90% | objective response rate (ORR) ([5]; Phase I clinical trial): 64% | time of treatment until resistance and disease progression ([5]; most patients): 6-18 months

Now from value to molecule:

moisture absorbed ([1]; 10% RH in the adsorption stage): about 4% | weight change [1]: about 2.3% | change of weight ([1]; range of 10-80% RH): less than 2% | moisture removed ([1]; under 10% RH): about 4% | change in crystalline form ([2]; 25° C.-60% RH for 10 days): no change in crystalline form | change in crystalline form ([2]; 40° C.-75% RH for 10 days): no change in crystalline form | change in crystalline form ([2]; 80° C. for 24 hours): no change in crystalline form
SMILES: C[C@@H]1CN(C(=O)c2ccc(NC(=O)c3cc(O[C@H](C)c4c(Cl)ccc(F)c4Cl)c(N)nn3)cc2)C[C@H](C)N1 [Crystalline form B]

change in crystalline form ([2]; dried at room temperature or dried in vacuum at room temperature): transformed into Crystalline form B
SMILES: C[C@@H]1CN(C(=O)c2ccc(NC(=O)c3cc(O[C@H](C)c4c(Cl)ccc(F)c4Cl)c(N)nn3)cc2)C[C@H](C)N1 [Crystalline form D]

change in crystalline form ([2]; placed in a desiccator for 2 days): transformed into Crystalline form A
SMILES: C[C@@H]1CN(C(=O)c2ccc(NC(=O)c3cc(O[C@H](C)c4c(Cl)ccc(F)c4Cl)c(N)nn3)cc2)C[C@H](C)N1 [Crystalline form E]

IC50 (ALK (F1174L)): 0.16 nM | IC50 (TRKA): 8 nM | IC50 (TRKA-TPR): 1.22 nM | IC50 (ALK(L1196M)): 0.32 nM | IC50 (ALK (S1206R)): 0.17 nM | IC50 (ALK(L1152R)): 0.58 nM | IC50 (ALK (G1202R)): 3.83 nM | IC50 (ALK-TFG): 0.73 nM | IC50 (ALK (T1151M)): 0.13 nM | IC50 (ALK): 0.16 nM | IC50 (ALK (G1269A)): 1.14 nM | IC50 (ALK (G1269S)): 1.39 nM | IC50 (TRKB): 3.39 nM | IC50 (EPHA1): 6.22 nM | IC50 (ALK-NPM1): 0.68 nM | IC50 (ALK-TPM3): 0.21 nM | IC50 (ALK (T1151-L1152insT)): 0.26 nM | IC50 (ALK (Fl 174L)-NPM1): 0.47 nM | IC50 (EPHA2): 1.14 nM | IC50 (ALK (C1156Y)): 0.28 nM | IC50 (ROS/ROS1): 1.41 nM | IC50 (ROS1-GOPC): 0.98 nM | IC50 (TRKA-TFG (TRK-T3)): 0.46 nM | IC50 (c-MET): 9.59 nM | IC50 (NEK1): 6.08 nM | IC50 (TRKC): 0.46 nM | IC50 (TRKA-TPM3): 0.62 nM | IC50 (ALK (Fl 174L)-EML4): 0.53 nM | IC50 (CSF1R (FMS)): 13.4 nM | IC50 (ALK (R1275Q)): 1.06 nM | IC50 (EPHB1): 8.59 nM | IC50 (ALK (F1174S)): 0.17 nM
SMILES: C[C@@H]1CN(C(=O)c2ccc(NC(=O)c3cc(O[C@H](C)c4c(Cl)ccc(F)c4Cl)c(N)nn3)cc2)C[C@H](C)N1 [compound of Formula I, {5-[(1R)-1-(2,6-dichloro-3-fluorophenyl)ethoxy]-6-aminopyridazin-3-ly}-N-{4-[((3S,5R)-3,5-dimethylpiperazinyl)carbonyl]phenyl} carboxamide hydrochloride]

— US10899744B2, “Crystalline form of compound suppressing protein kinase activity, and application thereof” (XCOVERY HOLDINGS, INC., priority 2016, dated 2021)
